Measurements: ChEMBL document CHEMBL4184256, “Synthesis and biological evaluation of longanlactone analogues as neurotrophic agents” (Bioorg Med Chem Lett, 2018)
The source made the active and inactive calls. No cut-off for these calls is given here.

Columns and labels:
N2a [1] = experiment: Neurotrophic activity in mouse Neuro2a cells assessed as increase in neurite length at 0.01 uM incubated for 48 hrs relative to untreated control; type: functional
N2a [2] = experiment: Neurotrophic activity in mouse Neuro2a cells assessed as increase in neurite length at 0.1 uM incubated for 48 hrs relative to untreated control; type: functional
N2a [3] = experiment: Cytotoxicity in mouse Neuro2a cells assessed as reduction in cell viability by MTT assay; type: cell-based
N2a [4] = experiment: Neurotrophic activity in mouse Neuro2a cells assessed as increase in BDNF mRNA expression at 0.01 uM incubated for 2 hrs by RT-qPCR method relative to untreated control
N2a [5] = experiment: Neurotrophic activity in mouse Neuro2a cells assessed as increase in NT3 mRNA expression at 0.01 uM incubated for 2 hrs by RT-qPCR method relative to untreated control
N2a [6] = experiment: Neurotrophic activity in mouse Neuro2a cells assessed as increase in NT3 mRNA expression at 0.1 uM incubated for 2 hrs by RT-qPCR method relative to untreated control
N2a [7] = experiment: Neurotrophic activity in mouse Neuro2a cells assessed as increase in BDNF mRNA expression at 0.1 uM incubated for 2 hrs by RT-qPCR method relative to untreated control

## CC(=O)c1cccn1[C@H]1C[C@H](Cc2cn(Cc3ccccc3)nn2)OC1=O
N2a [1]
  Activity: -2.23%
N2a [2]
  Activity: 17.02%
N2a [3]
  IC50: 66.9 µM

## C#CC[C@@H]1C[C@H](n2cccc2C(=O)C(F)(F)F)C(=O)O1
N2a [1]
  Activity: 33.74%
N2a [2]
  Activity: 41.02%
N2a [3]
  IC50: > 100 µM
N2a [4]
  Activity: Active
N2a [5]
  Activity: inactive

## C#CC[C@H]1C[C@H](n2cccc2C(C)=O)C(=O)O1
N2a [1]
  Activity: 9.04%
N2a [2]
  Activity: 20.95%
N2a [3]
  IC50: > 100 µM

## CC(=O)c1cccn1[C@H]1C[C@@H](CC#Cc2ccc([N+](=O)[O-])cc2)OC1=O
N2a [1]
  Activity: -7.58%
N2a [2]
  Activity: 9.11%
N2a [3]
  IC50: > 100 µM

## C#CC[C@H]1C[C@H](n2cccc2C(=O)CC)C(=O)O1
N2a [1]
  Activity: 4.63%
N2a [2]
  Activity: 9.5%
N2a [3]
  IC50: 40.7 µM

## C#CC[C@@H]1C[C@H](n2cccc2C(C)=O)C(=O)O1
N2a [1]
  Activity: 8.03%
N2a [2]
  Activity: 37.01%
N2a [3]
  IC50: 121 µM
N2a [6]
  Activity: inactive
N2a [7]
  Activity: Active

## CC(=O)c1cccn1[C@H]1C[C@H](Cc2cn([C@H]3C[C@H](n4cc(C)c(=O)[nH]c4=O)O[C@@H]3CO)nn2)OC1=O
N2a [1]
  Activity: 9.52%
N2a [2]
  Activity: 14.8%
N2a [3]
  IC50: 95.8 µM

## CC(=O)c1cccn1[C@H]1C[C@@H](Cc2cn(Cc3ccccc3)nn2)OC1=O
N2a [1]
  Activity: 5.41%
N2a [2]
  Activity: 15.62%
N2a [3]
  IC50: 91.6 µM

## C#CC[C@@H]1C[C@H](n2cccc2)C(=O)O1
N2a [1]
  Activity: 6.56%
N2a [2]
  Activity: 10.9%
N2a [3]
  IC50: ≥ 100 µM

## C#CC[C@@H]1C[C@H](n2cccc2C(=O)CC)C(=O)O1
N2a [1]
  Activity: 11.63%
N2a [2]
  Activity: 9.47%
N2a [3]
  IC50: 40.6 µM

## C#CC[C@H]1C[C@H](n2cccc2C(=O)C(F)(F)F)C(=O)O1
N2a [1]
  Activity: 7.76%
N2a [2]
  Activity: 22.22%
N2a [3]
  IC50: 97.8 µM

## C#CC[C@H]1C[C@H](n2cccc2)C(=O)O1
N2a [1]
  Activity: 12.15%
N2a [2]
  Activity: 14.56%
N2a [3]
  IC50: > 100 µM

## CC(=O)c1cccn1[C@H]1C[C@H](CC#Cc2ccc([N+](=O)[O-])cc2)OC1=O
N2a [1]
  Activity: 1.43%
N2a [2]
  Activity: 13.27%
N2a [3]
  IC50: > 100 µM

## CC(=O)c1cccn1[C@H]1C[C@@H](Cc2cn([C@H]3C[C@H](n4cc(C)c(=O)[nH]c4=O)O[C@@H]3CO)nn2)OC1=O
N2a [1]
  Activity: 3.67%
N2a [2]
  Activity: 6.61%
N2a [3]
  IC50: 96.2 µM
